From US11542246B2, “Quinoline compounds as IRAK inhibitors and uses thereof” (Merck Patent GmbH, priority 2018, dated 2023)

Key:
IRAK4 = IRAK4 (Homo sapiens, UniProt Q9NWZ3); experiment: IRAK4 Enzymatic Assay; type: biochemical; details: His-TEV-IRAK4, ATP 2 μM, STK1-biotin peptide 300 nM, 3 hours at 30° C.
Description: IRAK4 Enzymatic Assay IRAK4 is a human purified recombinant enzyme ([…]. IRAK4 hydrolyses ATP, autophosphorylates and phosphorylates a Serine/Threonine generic peptidic substrate (STK: 61ST1BLC from CisBio International based in Bagnols/Cèze FR). Measurement of IRAK-4 inhibition was performed in streptavidin coated 384 well FlashPlate (PerkinElmer #SM[…]). His-TEV-IRAK4 (20 ng/well), ATP (2 μM, [^33P]ATP 0.25 μCi/well), STK1-biotin peptide (300 nM) and compounds in DMSO (range of concentrations from 20 μM to 1 nM) or controls (2% DMSO) were incubated for 3 hours at 30° C. in assay buffer: Hepes pH7.0 50 mM, Fatty acid-free BSA 0.1%, Dithiothreitol DTT 2 mM, MgCl2 10 mM, EGTA 0.5 mM, Tween-20 0.01%, MnCl2 5 mM. Kinase reaction was stopped by addition of EDTA.

[1] = system: TLR7 induced IL-6 secretion in human mononuclear cells (PBMC's); experiment: TLR7 induced IL-6 in Human PBMC's; type: cell-based; details: TLR7 specific ligand 2 uM overnight, IL-6 Alpha LISA
Description: TLR7 induced IL-6 in Human PBMC's
Human PBMC assay was used as one of the functional assays to monitor the activity of IRAK1 and IRAK4 small molecule inhibitors on TLR7 induced IL-6 secretion in human mononuclear cells (PBMC's). Human PBMCs were prepared from buffy coats (whole blood enriched with leukocytes and platelets) obtained from healthy volunteers used either fresh or frozen are plated in assay media (RPMI+2% P/S/L-glu+10% HI-FBS) and pre-treated with compounds in DMSO/media (range of concentrations from 25 uM to 0.4 nM) or controls (0.25% DMSO) for 30 minutes at 37° C. in assay media. Following pre-treatment with IRAK1 and IRAK4 inhibitors, PBMC's were stimulated with TLR7 specific ligand (2 uM) overnight (16-18 hrs) at 37° C. After incubation supernatant was transferred to 384 well PE AlphaPlate-384 (6005350) and IL-6 is quantified using Perkin Elmer IL-6 Alpha LISA kit (AL223C). Plates were read on an Envision® plate reader with Alpha Technology®.

IRAK1 = IRAK1 (Homo sapiens (Human), UniProt P51617); experiment: IRAK1 Enzymatic Assay; type: biochemical; details: His-TEV-IRAK1 (194-712), ATP 1 μM, 3 hours at 30° C.
Description: IRAK1 is a human purified recombinant enzyme (His-TEV-IRAK1 (194-712)). In this assay, IRAK-1 hydrolyses ATP and autophosphorylates. Measurement of IRAK-1 inhibition was performed in streptavidin coated 384 well FlashPlate (PerkinElmer #SMP410A). His-TEV-IRAK-1 (15 ng/well), ATP (1 μM, [33P]ATP 0.25 μCi/well) and compounds in DMSO (range of concentrations from 20 μM to 1 nM) or controls (2% DMSO) were incubated for 3 hours at 30° C. in assay buffer: Hepes pH7.0 50 mM, Fatty acid-free BSA 0.1%, Dithiothreitol DTT 2 mM, MgCl2 10 mM, EGTA 0.5 mM, Triton-X-100 0.01%. Kinase reaction was stopped by addition of EDTA. Supernatant was discarded, plates were washed three times with 150 mM NaCl and radioactivity was then measured in a Microbeta Trilux reader.

Chain of IRAK4 (Q9NWZ3 whole entry, looked up): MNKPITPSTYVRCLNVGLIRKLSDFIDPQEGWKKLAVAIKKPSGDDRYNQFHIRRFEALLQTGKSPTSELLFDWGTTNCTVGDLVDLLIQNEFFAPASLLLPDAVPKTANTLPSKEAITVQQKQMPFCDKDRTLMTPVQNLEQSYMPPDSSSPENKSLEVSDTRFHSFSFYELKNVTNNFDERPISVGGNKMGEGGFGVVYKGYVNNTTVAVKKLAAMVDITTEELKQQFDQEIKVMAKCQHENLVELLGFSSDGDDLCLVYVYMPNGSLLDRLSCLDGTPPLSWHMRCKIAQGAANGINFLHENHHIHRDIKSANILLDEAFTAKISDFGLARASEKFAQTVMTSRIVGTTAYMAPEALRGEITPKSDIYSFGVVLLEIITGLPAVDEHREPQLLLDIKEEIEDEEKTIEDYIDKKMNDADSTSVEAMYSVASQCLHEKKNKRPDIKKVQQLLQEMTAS
Chain of IRAK1 (P51617 194-712): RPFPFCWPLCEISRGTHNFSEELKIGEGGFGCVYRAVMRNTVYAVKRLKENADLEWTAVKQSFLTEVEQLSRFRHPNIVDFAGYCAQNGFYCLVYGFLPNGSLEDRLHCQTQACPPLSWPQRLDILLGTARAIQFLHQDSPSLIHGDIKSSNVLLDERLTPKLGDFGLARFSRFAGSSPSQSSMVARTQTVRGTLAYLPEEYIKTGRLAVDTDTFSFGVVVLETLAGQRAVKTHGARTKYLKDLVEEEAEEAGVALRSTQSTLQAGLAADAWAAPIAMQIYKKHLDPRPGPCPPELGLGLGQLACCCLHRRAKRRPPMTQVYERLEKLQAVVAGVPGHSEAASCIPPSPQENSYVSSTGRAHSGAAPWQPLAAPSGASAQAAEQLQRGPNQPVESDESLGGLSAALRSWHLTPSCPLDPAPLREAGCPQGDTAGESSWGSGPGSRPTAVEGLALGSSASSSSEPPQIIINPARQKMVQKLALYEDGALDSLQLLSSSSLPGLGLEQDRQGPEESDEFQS

## COc1nc2c(OCC3CCC(=O)N3)cccc2cc1C(N)=O (stereo not shown) [Compound 1, 2-Methoxy-8-(5-oxo-pyrrolidin-2-ylmethoxy)-quinoline-3-carboxylic acid amide]
IRAK4
  IC50: < 100 nM
[1]
  IC50: < 500 nM
IRAK1
  IC50: > 5000 nM

## COc1nc2c(OC[C@@H]3CCC(=O)N3)cccc2cc1C(N)=O [Compound 3, 2-Methoxy-8-((S)-5-oxo-pyrrolidin-2-ylmethoxy)-quinoline-3-carboxylic acid amide]
IRAK4
  IC50: < 100 nM
[1]
  IC50: < 500 nM
IRAK1
  IC50: 1000 to 5000 nM

## COc1cc2c(OCC3CCC(=O)N3)cccc2nc1C(N)=O (stereo not shown) [Compound 2, 3-Methoxy-5-(5-oxo-pyrrolidin-2-ylmethoxy)-quinoline-2-carboxylic acid amide]
IRAK4
  IC50: 100 to 1000 nM
IRAK1
  IC50: > 5000 nM

## CC[C@@H]1[C@H](F)C(=O)N[C@@H]1COc1nccc2cc(C(N)=O)c(OC)nc12 [Compound 6, 8-((2S,3S,4S)-3-Ethyl-4-fluoro-5-oxo-pyrrolidin-2-ylmethoxy)-2-methoxy-[1,7]naphthyridine-3-carboxylic acid amide]
IRAK4
  IC50: < 100 nM
IRAK1
  IC50: 1000 to 5000 nM

## CC[C@@H]1[C@H](F)C(=O)N[C@@H]1COc1cccc2cc(C(N)=O)c(OC)nc12 [Compound 4, 8-((2S,3S,4S)-3-Ethyl-4-fluoro-5-oxo-pyrrolidin-2-ylmethoxy)-2-methoxy-quinoline-3-carboxylic acid amide]
IRAK4
  IC50: < 100 nM
[1]
  IC50: < 500 nM
IRAK1
  IC50: 100 to 1000 nM

## COc1nc2c(OC[C@@H]3CC(F)(F)C(=O)N3)cccc2cc1C(N)=O [Compound 5, 8-((S)-4,4-Difluoro-5-oxo-pyrrolidin-2-ylmethoxy)-2-methoxy-quinoline-3-carboxylic acid amide]
IRAK4
  IC50: < 100 nM
[1]
  IC50: < 500 nM
IRAK1
  IC50: 1000 to 5000 nM
